Converted amounts (≈) assume the structure as drawn.
Experiments:
[1] = tested on: Bacillus cereus (ATCC 10987); test: Antimicrobial activity, broth microdilution MIC with resazurin; type: cell-based; details: ATCC10987, B. cereus, 37 °C, 24 h, average of three independent experiments
Procedure: (§1) The following strains of bacteria were used as test organisms in this study: Staphylococcus aureus (ATCC 25923), Bacillus subtilis (ATCC 6633), Bacillus cereus (ATCC 10987), and Escherichia coli (ATCC 25922). All the bacteria used were obtained from the American Type Culture Collection (ATCC). Cultures were stored at 4 °C and subcultured every 15 days. The minimal inhibitory concentration (MIC) was determined by the broth microdilution method using 96-well micro-titer plates. A series of dilutions of the tested compounds was used in the experiment against every microorganism. The starting solutions of tested compounds were obtained by measuring off a certain quantity of the compounds and dissolving it in 5% DMSO. The MIC was determined with resazurin. The inoculated plates were incubated at 37 °C for 24 h. Resazurin is an oxidation–reduction indicator used for the evaluation of microbial growth. It is a blue non-fluorescent dye that becomes pink and fluorescent when reduced to resorufin by oxidoreductases within viable cells. The boundary dilution without any changing in color of resazurin was defined as the MIC for the tested microorganism at a given concentration. As a positive control of growth inhibition, streptomycin was used. A 5% DMSO solution was used as a negative control for the influence of the solvents.

[2] = tested on: Bacillus subtilis (ATCC 6633); test: as above; type: cell-based; details: ATCC6633, B. subtilis, 37 °C, 24 h, average of three independent experiments
Procedure: as §1

[3] = tested on: Escherichia coli (ATCC 25922); test: as above; type: cell-based; details: ATCC25922, E. coli, 37 °C, 24 h, average of three independent experiments
Procedure: as §1

[4] = tested on: Staphylococcus aureus (ATCC 25923); test: as above; type: cell-based; details: ATCC25923, S. aureus, 37 °C, 24 h, average of three independent experiments
Procedure: as §1

[5] = tested on: human cervical adenocarcinoma HeLa; test: Cytotoxicity, MTT assay; type: cell-based; details: for selectivity index (SI): HeLa cells versus MRC-5; for IC50: Homo sapiens, HeLa, 72 h
Procedure: (§2) Cell line cells were obtained from the American Type Culture Collection. Human cervical adenocarcinoma HeLa, human chronic myelogenous leukemia K562, non-small cell lung carcinoma A549, human colon carcinoma LS174, pancreatic carcinoma PaCa-2, and normal human lung fibroblast MRC-5 cell lines were grown in RPMI-1640 medium with 10% fetal bovine serum, L-glutamine, and penicillin–streptomycin solution. Cells were plated into the 96-well cell culture plates. Cells were incubated at 37 °C in CO2 incubator. Adherent cell lines were incubated for 20 h before addition of tested compounds. Two hours before addition of compounds, K562 cells were seeded into 96-well plates. The tested compounds were applied at five different concentrations ranging from 10 to 300 µM for 72 h. Thereafter, the survival of cells was determined by MTT assay in accordance with the protocol established by Mosmann and Ohno and Abe. The solution of MTT was added to blank and cell samples. The plates were incubated for 5 h at 37 °C, and then 10% solution of sodium dodecyl sulfate was added to the wells. The absorbance was measured at 570 nm using Thermo Scientific Multiskan EX plate reader. Three independent experiments were performed.

[6] = tested on: human chronic myelogenous leukemia K562; test: Cytotoxicity, MTT assay; type: cell-based; details: 72 h
Procedure: as §2

[7] = tested on: human colon carcinoma LS174; test: Cytotoxicity, MTT assay; type: cell-based
Procedure: as §2

[8] = tested on: pancreatic carcinoma PaCa-2; test: Cytotoxicity, MTT assay; type: cell-based; details: Homo sapiens, 72 h
Procedure: as §2

[9] = tested on: non-small cell lung carcinoma A549; test: Cytotoxicity, MTT assay; type: cell-based, human; details: for IC50: Homo sapiens, A549, 72 h; for selectivity index (SI): A549 cells versus MRC-5
Procedure: as §2

[10] = Cytotoxicity, MTT assay, normal cells; type: cell-based, human; details: human, MRC-5 normal lung fibroblast cells; MRC-5 normal fibroblast; 72 h
Procedure: as §2

[11] = tested on: normal human lung fibroblast MRC-5; test: Cytotoxicity, MTT assay, normal cells; type: cell-based; details: MRC-5
Procedure: as §2

[12] = tested on: Gyrase B of E. Coli; parameters: method as in PMID 31257079; details: read-out: inhibitory activity IC50; cited from earlier work
[13] = parameters: method as in PMID 34019615, PMID 20000793; details: cited from earlier work

`CCCCCCCCCCOc1ccc(C=C2C(=O)OC(C)(C)OC2=O)cc1OC` [3i, 5-(4′-decyloxy-3′-methoxybenzylidene)-2,2-dimethyl-1,3-dioxane-4,6-dione] showed an MIC [1] of 41.5 µM (≈ 17.4 µg/mL), an MIC [2] of 29.5 µM (≈ 12.3 µg/mL) and an MIC [3] of 12.4 µM (≈ 5.19 µg/mL). For the same molecule, the MIC [4] was 50.9 µM (≈ 21.3 µg/mL), the “selectivity index (SI)” value [5] was 4.8 and the IC50 [5] was 15.7 ± 0.28 µM. The IC50 [6] was 63.7 ± 2.49 µM, the IC50 ([7]; 72 h) was 30.5 ± 0.35 µM and the IC50 ([7]; Homo sapiens, LS174, 72 h) was 20.8 µM. The IC50 [8] was 58.2 ± 0.74 µM, the IC50 [9] was 21.8 ± 0.91 µM and the IC50 at 72 h [10] was 74.6 ± 1.46 µM. The “toxicity towards MRC-5 cell lines (in words)” value [11] was “moderate toxicity”.
For `CCNC(=O)Nc1cc(-n2cc(Br)cn2)c(C(=O)Nc2cccnc2)cn1` [P3C, 4-(4-bromo-1H-pyrazol-1-yl)-6-[(ethylcarbamoyl)amino]-N-(pyridine-3-yl)pyridine-3-carboxamide], the IC50 [12] is given as 0.037 µM.
In the case of `CCCCCCCCOc1ccc(C=C2C(=O)OC(C)(C)OC2=O)cc1OC` [3h, 5-(3′-methoxy-4′-octyloxybenzylidene)-2,2-dimethyl-1,3-dioxane-4,6-dione], the MIC [1] is reported as 64.8 µM (≈ 25.3 µg/mL), the MIC [2] is reported as 31.5 µM (≈ 12.3 µg/mL) and the MIC [3] is reported as 14.7 µM (≈ 5.74 µg/mL). For the same molecule, the MIC [4] was 54.2 µM (≈ 21.2 µg/mL), the “selectivity index (SI)” value [5] was 2.9 and the IC50 [5] was 18.2 ± 0.11 µM. For the same molecule, the IC50 [6] was 73.5 ± 1.43 µM, the IC50 ([7]; Homo sapiens, LS174, 72 h) was 36.5 ± 0.24 µM and the IC50 [8] was 90.5 ± 0.83 µM. The “selectivity index (SI)” value [9] was 4.3, the IC50 [9] was 27.4 ± 0.78 µM and the IC50 at 72 h [10] was 72.8 ± 0.77 µM. The “toxicity towards MRC-5 cell lines (in words)” value [11] was “moderate toxicity”.
For `CC1(C)OC(=O)CC(=O)O1` [Meldrum’s acid], the pKa [13] is listed as 4.9.
Work on `CCC(=O)Oc1ccc(C=C2C(=O)OC(C)(C)OC2=O)cc1OC` [3b, 2′-methoxy-4′-((2,2-dimethyl-4,6-dioxo-1,3-dioxan-5-ylidene)methyl)phenyl propionate] yielded an MIC [1] of 174 µM (≈ 58.2 µg/mL), an MIC [2] of 175 µM (≈ 58.6 µg/mL) and an MIC [3] of 89.5 µM (≈ 29.9 µg/mL). The MIC [4] was 210 µM (≈ 70.4 µg/mL), the IC50 [5] was 102 ± 2.14 µM and the IC50 [6] was 74.5 ± 1.73 µM. It also gave an IC50 ([7]; Homo sapiens, LS174, 72 h) of 105 ± 4.62 µM, an IC50 [8] of 153 ± 4.29 µM and an IC50 [9] of 41.2 ± 1.74 µM. For the same molecule, the IC50 at 72 h [10] was over 200 µM.
`CCCCCCOc1ccc(C=C2C(=O)OC(C)(C)OC2=O)cc1OC` [3f, 5-(4′-hexyloxy-3′-methoxybenzylidene)-2,2-dimethyl-1,3-dioxane-4,6-dione] gave an MIC [1] of 42.3 µM (≈ 15.3 µg/mL), an MIC [2] of 48.3 µM (≈ 17.5 µg/mL) and an MIC [3] of 37.5 µM (≈ 13.6 µg/mL). The MIC [4] was 73.9 µM (≈ 26.8 µg/mL), the IC50 [5] was 63.5 ± 0.45 µM and the IC50 [6] was 71.9 ± 1.65 µM. The IC50 ([7]; Homo sapiens, LS174, 72 h) was 45.3 ± 0.58 µM, the IC50 [8] was 110 ± 1.75 µM and the IC50 [9] was 39.6 ± 0.74 µM. For the same molecule, the IC50 at 72 h [10] was 144 ± 2.84 µM.
`CCCCCCCOc1ccc(C=C2C(=O)OC(C)(C)OC2=O)cc1OC` [3g, 5-(4′-heptyloxy-3′-methoxybenzylidene)-2,2-dimethyl-1,3-dioxane-4,6-dione] gave an MIC [1] of 37.5 µM (≈ 14.1 µg/mL), an MIC [2] of 45.2 µM (≈ 17 µg/mL) and an MIC [3] of 36.1 µM (≈ 13.6 µg/mL). It also gave an MIC [4] of 60.4 µM (≈ 22.7 µg/mL), an IC50 [6] of 69.5 ± 1.37 µM and an IC50 ([7]; Homo sapiens, LS174, 72 h) of 47.1 ± 1.69 µM. For the same molecule, the IC50 [8] was 94.2 ± 1.09 µM, the IC50 [9] was 35.1 ± 0.27 µM and the IC50 at 72 h [10] was 139 ± 3.07 µM.
Work on `COc1cc(C=C2C(=O)OC(C)(C)OC2=O)ccc1OCCOCCOCCO` [3e, 5-(4′-(2″-(2′″-(2″″-hydroxyethoxy)ethoxy)ethoxy)-3′-methoxybenzylidene)-2,2-dimethyl-1,3-dioxane-4,6-dione] yielded an MIC [1] of 80.5 µM (≈ 33 µg/mL), an MIC [2] of 133 µM (≈ 54.6 µg/mL) and an MIC [3] of 38.1 µM (≈ 15.6 µg/mL). The MIC [4] was 145 µM (≈ 59.6 µg/mL), the “selectivity index (SI)” value [5] was 4.0 and the IC50 [5] was 37.3 ± 1.2 µM. For the same molecule, the IC50 [6] was 80.5 ± 2.36 µM, the IC50 ([7]; Homo sapiens, LS174, 72 h) was 38.1 ± 0.41 µM and the IC50 [8] was 182 ± 3.94 µM. For the same molecule, the “selectivity index (SI)” value [9] was 2.6, the IC50 [9] was 25.9 ± 0.46 µM and the IC50 at 72 h [10] was 111 ± 2.19 µM.
`COc1cc(C=C2C(=O)OC(C)(C)OC2=O)cc([N+](=O)[O-])c1O` [3a, 5-(4′-hydroxy-3′-methoxy-5′-nitrobenzylidene)-2,2-dimethyl-1,3-dioxane-4,6-dione] gave an MIC [3] of 115 µM (≈ 37.3 µg/mL), an IC50 [5] of 126 ± 1.45 µM and an IC50 [6] of 151 ± 3.47 µM. It also gave an IC50 ([7]; Homo sapiens, LS174, 72 h) of over 200 µM, an IC50 [8] of over 200 µM and an IC50 [9] of over 200 µM. For the same molecule, the IC50 at 72 h [10] was over 200 µM.
In the case of `COc1cc(C=C2C(=O)OC(C)(C)OC2=O)ccc1OC(=O)C1CC1` [3c, 2′-methoxy-4′-((2,2-dimethyl-4,6-dioxo-1,3-dioxan-5-ylidene)methyl)phenyl cyclopropanecarboxylate], the MIC [1] is reported as 172 µM (≈ 59.4 µg/mL), the MIC [2] is reported as 180 µM (≈ 62.5 µg/mL) and the MIC [3] is reported as 85.1 µM (≈ 29.5 µg/mL). It also gave an MIC [4] of 206 µM (≈ 71.3 µg/mL), an IC50 [5] of 84.6 ± 1.84 µM and an IC50 [6] of 70.2 ± 1.68 µM. It also gave an IC50 ([7]; Homo sapiens, LS174, 72 h) of 99.6 ± 1.44 µM, an IC50 [8] of 172 ± 5.25 µM and an IC50 [9] of 45.7 ± 1.65 µM. It also gave an IC50 at 72 h [10] of over 200 µM.
Work on `COc1ccc(C(=O)Oc2ccc(C=C3C(=O)OC(C)(C)OC3=O)cc2OC)cc1` [3d, 2′-methoxy-4′-((2,2-dimethyl-4,6-dioxo-1,3-dioxan-5-ylidene)methyl)phenyl 4-methoxybenzoate] yielded an MIC [1] of 168 µM (≈ 69.4 µg/mL), an MIC [2] of 169 µM (≈ 69.7 µg/mL) and an MIC [3] of 74.8 µM (≈ 30.8 µg/mL). For the same molecule, the MIC [4] was 200 µM (≈ 82.3 µg/mL), the IC50 [5] was 94.5 ± 3.15 µM and the IC50 [6] was 105.1 ± 0.92 µM. The IC50 ([7]; Homo sapiens, LS174, 72 h) was 118.9 ± 0.95 µM, the IC50 [8] was 145 ± 2.92 µM and the IC50 [9] was 36.2 ± 0.39 µM. It also gave an IC50 at 72 h [10] of over 200 µM.
`[H]/N=C(/N)N[C@H]1[C@H](O)[C@@H](O)[C@H](O[C@@H]2O[C@@H](C)[C@](O)(C=O)[C@H]2O[C@@H]2O[C@@H](CO)[C@H](O)[C@@H](O)[C@@H]2NC)[C@@H](N/C(N)=N\[H])[C@@H]1O` [streptomycin, reference compound] gave an MIC [1] of 0.003 µM (≈ 0.00174 µg/mL), an MIC [2] of 0.003 µM (≈ 0.00174 µg/mL) and an MIC [3] of 0.01 µM (≈ 0.00582 µg/mL). It also gave an MIC [4] of 0.005 µM (≈ 0.00291 µg/mL).

Reference: article PMC9968196, “Synthesis, Characterization, and Biological Evaluation of Meldrum’s Acid Derivatives: Dual Activity and Molecular Docking Study” (Pharmaceuticals, 2023)
